From patent US10940139B2, “Compounds that interact with the Ras superfamily for the treatment of cancers, inflammatory diseases, rasopathies, and fibrotic disease” (Shy Therapeutics LLC, priority 2017, dated 2021)

Columns and labels:
Test in all cases: Ras GTP binding domain inhibition assay (labeled GTP)
[1] = target: KRas G12D/Q61H double mutant (Homo sapiens (Human), UniProt P01116, G12D/Q61H); conditions: 20 μM compound; KRas G12D/Q61H double mutant; read-out: % Inhibition at 20 μM of K-Ras mutant and wild-type protein, KRas G12D Q61H
How it was run: (§1)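 Inhibition of labeled GTP binding is measured on immobilized His-KRas protein in Tris buffer pH 7.5 with 1 mM MgCl2 and 1 mM DTT.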

[2] = target: KRas G12C/Q61H double mutant (Homo sapiens (Human), UniProt P01116, G12C/Q61H); conditions: 20 μM compound; KRas G12C/Q61H double mutant; read-out: % Inhibition at 20 μM of K-Ras mutant and wild-type protein, KRas G12C Q61H
How it was run: as §1

KRas Q61H mutant = KRas Q61H mutant (Homo sapiens (Human), UniProt P01116, Q61H); conditions: 20 μM compound; KRas Q61H; read-out: % Inhibition at 20 μM of K-Ras mutant and wild-type protein, KRas Q61H
How it was run: as §1

KRas G12D mutant protein = KRas G12D mutant protein (Homo sapiens (Human), UniProt P01116, G12D); conditions: 20 μM compound; KRas G12D; read-out: % Inhibition at 20 μM of K-Ras mutant and wild-type protein, KRas G12D
KRas wild type = KRas wild type (Homo sapiens (Human), UniProt P01116); conditions: 20 μM compound; KRas wild type; read-out: % Inhibition at 20 μM of K-Ras mutant and wild-type protein, KRas wild type
How it was run: as §1

KRas G12C mutant = KRas G12C mutant (Homo sapiens (Human), UniProt P01116, G12C); conditions: 20 μM compound; KRas G12C; read-out: % Inhibition at 20 μM of K-Ras mutant and wild-type protein, KRas G12C
How it was run: as §1

KRas G12D/Q61H double mutant, sequence (P01116-2 other isoform, or with tags, fused parts or gaps G12D/Q61H): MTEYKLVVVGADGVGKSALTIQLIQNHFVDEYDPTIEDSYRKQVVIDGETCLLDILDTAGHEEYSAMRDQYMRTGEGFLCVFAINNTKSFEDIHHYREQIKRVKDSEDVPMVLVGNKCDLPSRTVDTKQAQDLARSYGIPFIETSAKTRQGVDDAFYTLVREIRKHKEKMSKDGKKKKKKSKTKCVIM
KRas G12C mutant, sequence (P01116-2 other isoform, or with tags, fused parts or gaps G12C): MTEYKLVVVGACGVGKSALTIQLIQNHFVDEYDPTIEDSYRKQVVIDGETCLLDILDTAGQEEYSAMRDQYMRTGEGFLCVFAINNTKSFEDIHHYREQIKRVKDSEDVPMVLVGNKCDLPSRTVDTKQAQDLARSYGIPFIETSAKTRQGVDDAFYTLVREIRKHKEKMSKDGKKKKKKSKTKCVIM
KRas Q61H mutant, sequence (P01116-2 other isoform, or with tags, fused parts or gaps Q61H): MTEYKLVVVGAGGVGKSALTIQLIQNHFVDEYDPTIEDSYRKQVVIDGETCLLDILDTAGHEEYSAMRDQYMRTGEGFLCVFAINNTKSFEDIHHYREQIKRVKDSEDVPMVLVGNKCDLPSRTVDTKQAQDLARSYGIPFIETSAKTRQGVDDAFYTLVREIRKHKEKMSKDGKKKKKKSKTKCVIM
KRas wild type, sequence (P01116-2 other isoform, or with tags, fused parts or gaps): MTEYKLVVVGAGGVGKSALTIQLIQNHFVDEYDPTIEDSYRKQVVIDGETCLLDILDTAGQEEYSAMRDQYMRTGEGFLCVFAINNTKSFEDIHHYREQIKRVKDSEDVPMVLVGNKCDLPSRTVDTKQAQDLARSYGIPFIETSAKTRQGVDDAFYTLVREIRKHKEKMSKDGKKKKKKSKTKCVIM
KRas G12C/Q61H double mutant, sequence (P01116-2 other isoform, or with tags, fused parts or gaps G12C/Q61H): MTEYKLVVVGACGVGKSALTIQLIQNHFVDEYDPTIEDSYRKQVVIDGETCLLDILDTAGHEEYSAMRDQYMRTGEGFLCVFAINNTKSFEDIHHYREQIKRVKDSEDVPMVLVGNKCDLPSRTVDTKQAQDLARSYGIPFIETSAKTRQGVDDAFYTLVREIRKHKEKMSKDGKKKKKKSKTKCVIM
KRas G12D mutant protein, sequence (P01116-2 other isoform, or with tags, fused parts or gaps G12D): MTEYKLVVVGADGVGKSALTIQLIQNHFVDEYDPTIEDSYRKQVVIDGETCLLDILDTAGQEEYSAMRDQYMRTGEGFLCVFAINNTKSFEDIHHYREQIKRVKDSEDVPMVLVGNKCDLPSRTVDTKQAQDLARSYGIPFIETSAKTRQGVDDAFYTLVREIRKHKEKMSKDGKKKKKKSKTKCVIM

| SMILES | inhibition at 20 µM [1] | inhibition at 20 µM [2] | inhibition at 20 µM (KRas Q61H mutant) | inhibition at 20 µM (KRas G12D mutant protein) | inhibition at 20 µM (KRas wild type) | inhibition at 20 µM (KRas G12C mutant) |
| --- | --- | --- | --- | --- | --- | --- |
| COCC(C)Nc1nc(-c2ccccn2)nc(C(=O)NCCCc2c[nH]cn2)c1Oc1ccccc1 (stereo not drawn) [drawing 3550] | 1 to 25% | 1 to 25% | 1 to 25% | – | – | – |
| COc1nc(-c2ccccn2)nc(Oc2cccc(C(F)(F)F)c2)c1OC [drawing 3552] | 1 to 25% | 0% | 0% | – | – | – |
| Oc1nc(-c2ccccn2)nc2c(Br)c(-c3ccccc3)sc12 [drawing 3553] | 0% | 1 to 25% | 1 to 25% | – | – | – |
| CC(C)(C)c1sc2c(O)nc(-c3ccccn3)nc2c1Br [drawing 3554] | 25 to 50% | 25 to 50% | 51 to 75% | – | – | – |
| Cc1ccc(-c2cc3nc(-c4ccccn4)nc(O)c3s2)cc1 [drawing 3555] | 0% | 1 to 25% | 0% | – | – | – |
| Oc1nc(-c2ccccn2)nc2cc(-c3ccccc3Cl)sc12 [drawing 3556] | 1 to 25% | 25 to 50% | 51 to 75% | – | – | – |
| Oc1nc(-c2ccccn2)nc2cc(-c3ccc(-c4ccccc4)cc3)sc12 [drawing 3559] | 1 to 25% | 1 to 25% | 1 to 25% | – | – | – |
| Cc1ccc(-c2csc3c(O)nc(-c4ccccn4)nc23)cc1 [drawing 3560] | 1 to 25% | 1 to 25% | 1 to 25% | – | – | – |
| Oc1nc(-c2ccccn2)nc2cc(-c3cccc(Br)c3)sc12 [drawing 3564] | 25 to 50% | 1 to 25% | 25 to 50% | – | – | – |
| CC(C)OCCNc1nc(-c2nccn2C)nc2sc(-c3ccccc3)c(-c3ccccc3)c12 [drawing 3567] | – | – | – | 51 to 75% | 51 to 75% | 51 to 75% |
| Cn1ccnc1-c1nc(NCCOC(F)(F)F)c2c(-c3ccccc3)c(-c3ccccc3)sc2n1 [drawing 3568] | – | – | – | 25 to 50% | 25 to 50% | 1 to 25% |
| COCCCNc1nc(-c2nccn2C)nc2sc(-c3ccccc3)c(-c3ccccc3)c12 [drawing 3570] | – | – | – | 51 to 75% | 51 to 75% | 51 to 75% |
| COC1CCN(c2nc(-c3nccn3C)nc3sc(-c4ccccc4)c(-c4ccccc4)c23)C1 (stereo not drawn) [drawing 3571] | – | – | – | 51 to 75% | 25 to 50% | 1 to 25% |
| CCOCCOc1nc(-c2nccn2C)nc2sc(-c3ccccc3)c(-c3ccccc3)c12 [drawing 3572] | – | – | – | 1 to 25% | 25 to 50% | 0% |
| CCN(CC)CCOc1nc(-c2nccn2C)nc2sc(-c3ccccc3)c(-c3ccccc3)c12 [drawing 3573] | – | – | – | 25 to 50% | 51 to 75% | 25 to 50% |
| Cn1ccnc1-c1nc(NCCOC2CC2)c2c(-c3ccccc3)c(-c3ccccc3)sc2n1 [drawing 3576] | – | – | – | 1 to 25% | 25 to 50% | 25 to 50% |
| COCC(C)Nc1nc(-c2nccn2C)nc2sc(-c3ccccc3)c(-c3ccccc3)c12 (stereo not drawn) [drawing 3577] | – | – | – | 1 to 25% | 1 to 25% | 1 to 25% |

The next lines start with the values.

| inhibition at 20 µM [1] | inhibition at 20 µM [2] | inhibition at 20 µM (KRas Q61H mutant) | inhibition at 20 µM (KRas G12D mutant protein) | inhibition at 20 µM (KRas wild type) | inhibition at 20 µM (KRas G12C mutant) | SMILES |
| --- | --- | --- | --- | --- | --- | --- |
| 25 to 50% | 1 to 25% | 25 to 50% | – | – | – | Nc1nc(-c2ccccn2)nc(C(=O)NCCc2ccncc2)c1Oc1ccccc1 [drawing 3551] |
| 1 to 25% | 1 to 25% | 1 to 25% | – | – | – | COc1ccc(-c2cc3nc(-c4ccccn4)nc(O)c3s2)cc1 [drawing 3563] |
| – | – | – | 51 to 75% | 1 to 25% | 25 to 50% | COc1nc(-c2ccccn2)nc(Oc2cccc(C(F)(F)F)c2)c1O [drawing 3565] |
| – | – | – | 51 to 75% | 51 to 75% | 25 to 50% | COCCN(C)c1nc(-c2nccn2C)nc2sc(-c3ccccc3)c(-c3ccccc3)c12 [drawing 3566] |
| – | – | – | 1 to 25% | 1 to 25% | 1 to 25% | CC(O)CNc1nc(-c2nccn2C)nc2sc(-c3ccccc3)c(-c3ccccc3)c12 (stereo not drawn) [drawing 3569] |
| – | – | – | 0% | 1 to 25% | 1 to 25% | COCCNc1nc(-c2ccncn2)nc2sc(-c3ccccc3)c(-c3ccccc3)c12 [drawing 3574] |
| – | – | – | 51 to 75% | 51 to 75% | 51 to 75% | CCOCCNc1nc(-c2nccn2C)nc2sc(-c3ccccc3)c(-c3ccccc3)c12 [drawing 3575] |
